Data as given in PMC5996347, “2-Mercapto-Quinazolinones as Inhibitors of Type II NADH Dehydrogenase and Mycobacterium tuberculosis: Structure–Activity Relationships, Mechanism of Action and Absorption, Distribution, Metabolism, and Excretion Characterization” (ACS Infectious Diseases, 2018).
Entries after “also recorded” stand apart in the source; their conditions may differ.

What was measured:
Type in all cases: cell-based, Mycobacterium tuberculosis
ΔndhA mutant = test system: ΔndhA mutant
nuoG deletion mutant = details: results not shown
[1] = test system: anaerobic nonreplicating MTb cells; assay: Anaerobic cidal activity on nonreplicating cells

SMILES: O=C(CSc1nc2ccccc2c(=O)[nH]1)NC1CCCCC1 [Compound 1, N-Cyclohexyl-2-((4-oxo-3,4-dihydroquinazolin-2-yl)thio)acetamide]
- Kill of ΔndhA mutant (ΔndhA mutant): ~2 log
- MIC to nuoG deletion mutant compared with WT (nuoG deletion mutant): indistinguishable from WT cells
- Anaerobic cidal activity / viability of anaerobic nonreplicating cells [1]: Lack of anaerobic cidal activity; also recorded: did not affect viability
